# Data as given in patent publication US20030134865A1, “Modulation of histone deacetylase” (priority 2003, published 2003).
# Assays:
# HDAC activity [1] = assay: Direct effect on HDAC activity of nuclear proteins from untreated A549 cells; format: biochemical
# Experimental: FIG. 13. […] (a) Direct effect of the PDE4 inhibitor rolipram (10 μM) and the adenosine receptor antagonist CGS-15943 (10 μM) on HDAC activity. […] (b) Direct effect of the MEK inhibitor PD089159 (1 μM) and the p38 MAPK inhibitor SB203580 on theophylline induced HDAC activity.
# HDAC1 [2] = assay: HDAC1 expression in A549 cells (Western blot); format: cell-based
# Experimental: (§1) FIG. 12. Effect of theophylline on HDAC expression. […]. Band densities were controlled for protein loading by comparison with β-actin expression. Results are shown as relative band densities.
# (§2) Western blotting: Immunoprecipitates, whole cell extractions or isolated histones were measured by SDS-PAGE and Western blot analysis using ECL (Amersham, Amersham, UK). Proteins were size-fractionated by SDS-PAGE and transferred to Hybond-ECL membranes. Specific protein bands were detected by ECL according to the manufacturer's instructions.
# HDAC2 [3] = assay: HDAC2 expression in A549 cells (Western blot); format: cell-based; details: for HDAC2 expression: A549 cells
# Text: […]. Proteins were extracted and size fractionated by SDS-PAGE and HDAC2 detected by Western blotting. Densitometric analysis of HDAC2 expression is shown graphically in the lower panel. Data from 3 separate experiments was normalised to β-actin and results expressed as mean±SEM. *p<0.05.
# as §1
# Immunoprecipitates, whole cell extractions or isolated histones were measured by SDS-PAGE and Western blot analysis using ECL (Amersham, Amersham, UK). Proteins were size-fractionated by SDS-PAGE and transferred to Hybond-ECL membranes. Immunoreactive bands were detected by ECL.
# as §2
# HDAC1 [4] = assay: HDAC1 expression in bronchial biopsies of treated asthmatics (Western blot); format: in vivo, human; details: placebo 0.28±0.09, p<0.05
# Text: (§3) FIG. 16. Effect of theophylline on HDAC expression and activity in vivo. (a) Western blot analysis of HDAC1 and HDAC 2 expression in bronchial biopsies from mild asthmatic subjects treated with low dose theophylline (LDT) or placebo. (b) Graphical expression of the effect of LDT and placebo on HDAC1 and HDAC2 expression relative to β-actin. (c) Effect of LDT and P on HDAC activity in bronchial biopsies. N=14.
# as §2
# HDAC2 [5] = assay: HDAC2 expression in bronchial biopsies of treated asthmatics (Western blot); format: in vivo, human; details: placebo 0.28±0.08, p=0.1
# Text: as §3, §2
# HDAC activity [6] = assay: Total HDAC activity in bronchial biopsies of treated asthmatics; format: in vivo, human; details: placebo 67±12, p<0.05
# Text: as §3
# [7] = system: HDAC activity, BAL macrophages; assay: HDAC activity in BAL macrophages; format: cell-based, human; details: 24 hours
# [8] = system: IL-8 release, alveolar macrophages; assay: LPS-induced IL-8 release from alveolar macrophages; format: cell-based, human; details: macrophages from non-smokers
# HDAC1 [9] = biological target: T1, HDAC1 (Homo sapiens, UniProt Q13547); assay: Immunoprecipitated HDAC1 activity; format: cell-based; details: theophylline 10^−5 M
# T1 construct: endogenous in cells
# Text: (§4) FIG. 22. Effect of theophylline on HDAC1, HDAC2 and HDAC3 activity.
# (§5) Using IP-HAT assays we were able to determine which HDACs were the target for theophylline action.
# HDAC2 [10] = biological target: T2, HDAC2 (Homo sapiens, UniProt Q92769); assay: Immunoprecipitated HDAC2 activity; format: cell-based; details: theophylline 10^−5 M
# T2 construct: endogenous in cells
# Text: as §4, §5
# HDAC3 = biological target: T3, HDAC3 (Homo sapiens, UniProt O15379); assay: Immunoprecipitated HDAC3 activity; format: cell-based; details: theophylline 10^−5 M
# T3 construct: endogenous in cells
# Text: as §4, §5
# [11] = system: histone acetyltransferase (HAT) activity, A549 cells
# Experimental: (a) Cells were stimulated with LPS (3 ng/ml) for 24 hours in the presence or absence of theophylline (10^−5 M) or Dex (10^−6 M). Total cellular proteins were extracted and histone acetylase activity measured. (b) GM-CSF release into the culture medium was measured after 6 hours by ELISA.
# After incubation for 10 min at 37° C. cells were stimulated for 6 hr. Histones were isolated and separated by electrophoresis on SDS-16% polyacrylamide gel. Gels were stained with Coommasie brilliant blue and the core histones (H2A, H2B, H3 and H4) excised. The radioactivity in extracted core histones was determined by liquid scintillation counting and normalised to protein level.
# [12] = system: GM-CSF release, A549 cells; assay: GM-CSF release from A549 cells (ELISA)
# Experimental: Determination of GM-CSF expression was measured by sandwich ELISA (Pharmingen, Lugano, Switzerland) according to the manufacturer's instructions.
# GM-CSF ELISA: Determination of GM-CSF expression was measured by sandwich ELISA (Pharmingen, Lugano, Switzerland) according to the manufacturer's instructions.
# [13] = system: HDAC activity, alveolar macrophages; assay: HDAC activity in alveolar macrophages from non-smokers or smokers; details: theophylline 10^−5 M, dexamethasone 10^−10 M
# [14] = system: histone deacetylase (HDAC) activity, A549 cells; assay: Histone deacetylation activity in total cellular extracts of treated A549 cells
# Experimental: (B) Effect of Trichostatin A (TSA) on histone deacetylase activity and histone H4 acetylation. Cells were treated with increasing concentrations of TSA for 6 hrs before total cellular proteins were isolated and analysed for deacetylase activity and also histone acetylation by Western blotting using an anti-pan acetylated histone H4 antibody.
# Effect of theophylline on histone deacetylase (HDAC) activity in A549 cells. (a) Cells were stimulated with LPS (3 ng/ml) for 24 hours in the presence or absence of theophylline (10^−5 M) or Dex (10^−6 M). Total cellular proteins were extracted and histone deacetylase activity measured. (b) Direct effect of theophylline on HDAC activity. […] Results are expressed as mean±SEM (n=3-5, *p<0.05, **p<0.01).
# [15] = Double-blind cross-over study of low dose theophylline in mild stable asthmatic subjects; details: 5 weeks low dose theophylline
# Text: Patients: Fifteen mild stable asthmatic subjects (Table 1) receiving treatment with only the inhaled β2-adrenergic agonist aerosol, albuterol, for intermittent relief of wheeze were recruited. […] All patients were atopic as defined by two or more positive skin prick tests to common allergens. […] Current smokers or ex-smokers of more than five pack years and patients with FEV1 less than 80% predicted were excluded.
# Fibreoptic bronchoscopy and isolation of BAL macrophages: Subjects attended our bronchoscopy suite at 8.30 am after having fasted from midnight and were pretreated with atropine (0.6 mg iv) and midazolam (5-10 mg iv). Oxygen (31/min) was administered via nasal prongs throughout the procedure and oxygen saturation was monitored with a digital oximeter. Using local anaesthesia with lidocaine (4%) to the upper airways and larynx, a fibreoptic bronchoscope (Olympus BF10) was passed through the nasal passages into the trachea. Bronchoalveolar lavage (BAL) was performed from the right middle lobe using warmed 0.9% NaCl with 4 successive aliquots of 60 mls of 0.9% NaCl. […] Cytospins were prepared and stained with May-Grunwald stain for differential cell counts. Cell viability was assessed using trypan blue exclusion.
# [16] = theophylline 10^−5 M, dexamethasone 10^−10 M
# T3 sequence (O15379 whole entry): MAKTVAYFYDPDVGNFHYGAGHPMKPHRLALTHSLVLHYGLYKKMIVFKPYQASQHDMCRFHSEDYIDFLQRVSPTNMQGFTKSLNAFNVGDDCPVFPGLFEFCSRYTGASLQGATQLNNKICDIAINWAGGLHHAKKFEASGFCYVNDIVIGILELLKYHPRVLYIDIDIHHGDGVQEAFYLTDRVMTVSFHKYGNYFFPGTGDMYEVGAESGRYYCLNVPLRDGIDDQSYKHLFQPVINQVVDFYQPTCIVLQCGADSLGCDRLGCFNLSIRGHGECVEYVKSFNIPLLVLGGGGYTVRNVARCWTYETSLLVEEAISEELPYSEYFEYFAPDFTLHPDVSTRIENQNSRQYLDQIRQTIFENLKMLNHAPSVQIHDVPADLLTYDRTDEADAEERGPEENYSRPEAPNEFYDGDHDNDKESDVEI
# T3 sequence (Q9Y618 whole entry partner): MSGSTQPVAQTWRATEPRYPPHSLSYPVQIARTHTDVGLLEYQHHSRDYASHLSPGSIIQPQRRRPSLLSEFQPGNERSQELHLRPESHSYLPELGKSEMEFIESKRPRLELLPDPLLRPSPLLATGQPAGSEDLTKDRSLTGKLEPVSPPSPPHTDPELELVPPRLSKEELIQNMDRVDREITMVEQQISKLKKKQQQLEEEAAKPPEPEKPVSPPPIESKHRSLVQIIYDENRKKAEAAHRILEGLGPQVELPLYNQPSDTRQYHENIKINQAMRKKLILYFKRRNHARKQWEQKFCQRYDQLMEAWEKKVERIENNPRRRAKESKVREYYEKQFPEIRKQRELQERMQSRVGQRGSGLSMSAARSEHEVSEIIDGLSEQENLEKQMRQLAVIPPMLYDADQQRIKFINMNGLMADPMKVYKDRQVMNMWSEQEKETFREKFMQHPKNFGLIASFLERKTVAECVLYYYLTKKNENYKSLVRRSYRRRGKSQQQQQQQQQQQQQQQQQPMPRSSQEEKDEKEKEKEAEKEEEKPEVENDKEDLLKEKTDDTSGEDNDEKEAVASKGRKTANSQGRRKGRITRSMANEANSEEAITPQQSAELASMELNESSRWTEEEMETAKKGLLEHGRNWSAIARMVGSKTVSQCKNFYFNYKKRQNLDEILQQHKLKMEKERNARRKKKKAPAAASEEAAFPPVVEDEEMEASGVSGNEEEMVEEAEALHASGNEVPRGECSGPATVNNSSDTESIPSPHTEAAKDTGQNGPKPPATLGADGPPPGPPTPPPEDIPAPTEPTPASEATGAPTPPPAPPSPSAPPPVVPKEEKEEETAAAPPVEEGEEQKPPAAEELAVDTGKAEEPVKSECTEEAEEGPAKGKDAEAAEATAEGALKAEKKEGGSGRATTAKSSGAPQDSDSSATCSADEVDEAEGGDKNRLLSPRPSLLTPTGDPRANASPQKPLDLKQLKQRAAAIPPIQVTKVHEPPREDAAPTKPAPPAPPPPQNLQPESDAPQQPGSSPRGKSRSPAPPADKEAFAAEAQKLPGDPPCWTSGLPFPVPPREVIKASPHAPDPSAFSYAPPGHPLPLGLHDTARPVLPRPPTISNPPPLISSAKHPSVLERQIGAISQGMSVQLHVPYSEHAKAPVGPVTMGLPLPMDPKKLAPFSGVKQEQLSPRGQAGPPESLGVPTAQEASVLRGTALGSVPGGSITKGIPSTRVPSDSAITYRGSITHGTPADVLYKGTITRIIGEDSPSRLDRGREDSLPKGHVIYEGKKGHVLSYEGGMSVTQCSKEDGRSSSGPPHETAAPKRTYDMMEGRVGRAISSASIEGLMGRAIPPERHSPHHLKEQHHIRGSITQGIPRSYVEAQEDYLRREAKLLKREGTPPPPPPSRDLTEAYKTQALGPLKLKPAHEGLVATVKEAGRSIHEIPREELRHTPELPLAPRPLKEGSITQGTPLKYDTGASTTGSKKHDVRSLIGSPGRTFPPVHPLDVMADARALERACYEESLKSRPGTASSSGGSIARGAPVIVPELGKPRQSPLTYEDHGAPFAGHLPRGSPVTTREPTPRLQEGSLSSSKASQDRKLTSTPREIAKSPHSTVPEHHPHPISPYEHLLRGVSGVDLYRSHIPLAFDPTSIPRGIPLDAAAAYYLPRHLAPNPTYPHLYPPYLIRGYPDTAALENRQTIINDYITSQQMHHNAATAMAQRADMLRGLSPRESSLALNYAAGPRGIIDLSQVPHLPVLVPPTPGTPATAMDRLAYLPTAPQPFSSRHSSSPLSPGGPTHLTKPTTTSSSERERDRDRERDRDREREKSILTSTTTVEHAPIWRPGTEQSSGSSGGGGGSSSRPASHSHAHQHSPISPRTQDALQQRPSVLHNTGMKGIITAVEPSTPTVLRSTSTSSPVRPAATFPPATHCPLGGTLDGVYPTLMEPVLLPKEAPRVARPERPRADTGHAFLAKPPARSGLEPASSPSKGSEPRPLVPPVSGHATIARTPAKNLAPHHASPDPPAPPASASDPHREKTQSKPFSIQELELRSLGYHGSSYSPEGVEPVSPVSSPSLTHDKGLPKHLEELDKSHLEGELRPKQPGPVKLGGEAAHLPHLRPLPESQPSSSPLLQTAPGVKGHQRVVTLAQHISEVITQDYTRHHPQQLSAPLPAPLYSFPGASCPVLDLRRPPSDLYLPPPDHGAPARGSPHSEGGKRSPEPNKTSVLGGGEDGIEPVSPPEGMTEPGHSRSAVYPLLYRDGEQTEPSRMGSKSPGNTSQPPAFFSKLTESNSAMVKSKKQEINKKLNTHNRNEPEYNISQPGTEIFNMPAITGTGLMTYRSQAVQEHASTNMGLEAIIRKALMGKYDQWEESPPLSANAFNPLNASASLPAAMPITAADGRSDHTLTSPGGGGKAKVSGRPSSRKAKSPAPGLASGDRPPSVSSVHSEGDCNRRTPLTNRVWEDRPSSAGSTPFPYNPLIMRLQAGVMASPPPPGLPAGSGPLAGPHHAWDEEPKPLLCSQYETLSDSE
# T1 sequence (Q13547 whole entry): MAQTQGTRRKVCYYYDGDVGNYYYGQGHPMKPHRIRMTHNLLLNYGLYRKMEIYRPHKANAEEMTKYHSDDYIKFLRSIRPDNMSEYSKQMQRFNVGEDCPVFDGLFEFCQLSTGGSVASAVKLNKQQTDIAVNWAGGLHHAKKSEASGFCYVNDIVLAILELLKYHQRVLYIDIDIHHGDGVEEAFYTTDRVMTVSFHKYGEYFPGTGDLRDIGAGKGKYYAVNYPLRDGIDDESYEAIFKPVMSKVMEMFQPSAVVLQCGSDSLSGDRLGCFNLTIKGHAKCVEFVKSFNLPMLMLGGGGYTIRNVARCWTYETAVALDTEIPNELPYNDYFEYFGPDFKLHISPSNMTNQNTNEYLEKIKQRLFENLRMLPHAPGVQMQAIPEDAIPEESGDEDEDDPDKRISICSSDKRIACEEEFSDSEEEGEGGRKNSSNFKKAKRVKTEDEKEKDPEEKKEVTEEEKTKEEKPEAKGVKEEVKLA
# T2 sequence (Q92769 whole entry): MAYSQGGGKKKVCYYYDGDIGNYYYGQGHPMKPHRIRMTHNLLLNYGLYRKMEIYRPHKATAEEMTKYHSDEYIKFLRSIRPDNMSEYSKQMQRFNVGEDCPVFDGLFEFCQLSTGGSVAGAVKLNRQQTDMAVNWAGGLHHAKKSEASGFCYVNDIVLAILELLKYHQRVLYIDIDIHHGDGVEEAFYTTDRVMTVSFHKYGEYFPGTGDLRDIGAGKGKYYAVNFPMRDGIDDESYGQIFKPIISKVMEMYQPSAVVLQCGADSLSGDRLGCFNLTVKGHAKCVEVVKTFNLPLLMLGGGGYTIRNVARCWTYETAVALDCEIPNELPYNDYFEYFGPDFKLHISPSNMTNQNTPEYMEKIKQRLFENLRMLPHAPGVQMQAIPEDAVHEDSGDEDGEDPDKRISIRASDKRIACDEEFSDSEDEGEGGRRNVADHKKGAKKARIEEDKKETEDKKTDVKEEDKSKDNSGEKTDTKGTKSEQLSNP
compound,measurement,setting,value
Cn1c(=O)c2[nH]cnc2n(C)c1=O [theophylline],direct effect on HDAC activity at higher concentrations,HDAC activity [1]; 10^−4-10^−3 M,inhibited HDAC activity
same,concentration of maximum increase in HDAC activity (direct),HDAC activity [1]; nuclear extracts,10^−5 M
same,direct effect on HDAC activity,"HDAC activity [1]; nuclear extracts, IBMX 500 μM, rolipram 10 μM, CGS-15943 10 μM",concentration-dependent increase
same,HDAC1 expression,"HDAC1 [2]; 24 hours, theophylline 10^−4 M",induced
same,HDAC1 expression,HDAC1 [2]; 24 hrs,no effect
same,IL-1β+H2O2-induced reduction in HDAC2 expression,HDAC2 [3]; 24 hrs,restored
same,HDAC2 expression,HDAC2 [3]; 24 hrs,no effect
same,HDAC2 expression,HDAC2 [3]; 24 hours,no effect
same,HDAC1 expression relative to β-actin,HDAC1 [4],0.44±0.06
same,HDAC2 expression relative to β-actin,HDAC2 [5],0.49±0.20
same,total HDAC activity in biopsies,HDAC activity [6],111±15 dpm/mg protein
same,HDAC activity at 10^−4 M,[7],decreased to control levels
same,concentration of maximal increase in HDAC activity,[7],10^−5 M
same,HDAC activity,[7]; rolipram 10 μM,concentration-dependent increase
same,LPS-induced IL-8 release,[8],no effect
same,HDAC1 activity,HDAC1 [9],significant induction
same,HDAC2 activity,HDAC2 [10],without having any effect
same,HDAC3 activity,HDAC3,significant induction
same,basal HAT activity,[11],Neither theophylline nor dexamethasone had any effect
same,LPS-induced whole cell HAT activity,"[11]; LPS 3 ng/ml, 24 hrs",significant concentration-dependent inhibitory effect
same,LPS-induced GM-CSF release,[12]; LPS 3 ng/ml,not associated with a significant reduction
same,"GM-CSF release after IL-1β plus H2O2, each alone",[12]; [16],neither theophylline (10^−5 M) nor dexamethasone (10^−10 M) alone had any effect
same,"IL-1β-stimulated GM-CSF release, each alone",[12]; [16],failed to inhibited
same,decrease in IL-1β-stimulated GM-CSF release,"[12]; theophylline 10^−5 M, dexamethasone 10^−10 M, alone or combined",20%
same,"HDAC activity, macrophages from non-smokers",[13],significantly enhanced
same,total cell HDAC activity after IL-1β plus H2O2,"[14]; 4 hrs, theophylline pre-treatment 10^−5 M, 10 min",significantly increased
same,total cell HDAC activity in LPS-stimulated cells,"[14]; pretreatment 60 min, up to 10^−5 M, measured at 24 hrs",significantly increased
same,BAL eosinophils,[15],1.7±0.28%
same,FEV1,[15],3.4±0.09
same,FEV1 (% predicted),[15],92.8 ± 2.6%
same,Muscosal eosinophils,[15],1.19 ± 0.43
same,NO,[15],23.2 ± 3.8
same,PC20 methacholine,[15],1.2±0.35
same,PEF am,[15],469±19
same,mucosal eosinophils,[15],1.19±0.43 eosinophils/high powered field
same,BAL eosinophils,[15]; listed as Theophylline,1.7 ± 0.28%
same,FEV1,[15]; listed as Theophylline,3.42 ± 0.09
same,PC20 methacholine,[15]; listed as Theophylline,1.2 ± 0.35
same,PEF am,[15]; listed as Theophylline,469 ± 19
